Assay results as given in ChEMBL document CHEMBL5291721, “A preclinical secondary pharmacology resource illuminates target-adverse drug reaction associations of marketed drugs” (Nat Commun, 2023).

Columns and labels:
Adenosine receptor A2a = Adenosine receptor A2a (Homo sapiens, UniProt P29274)
Adenosine receptor A3 = target: T1, Adenosine receptor A3 (Homo sapiens, UniProt P0DMS8)
T1 sequence (P0DMS8 whole entry): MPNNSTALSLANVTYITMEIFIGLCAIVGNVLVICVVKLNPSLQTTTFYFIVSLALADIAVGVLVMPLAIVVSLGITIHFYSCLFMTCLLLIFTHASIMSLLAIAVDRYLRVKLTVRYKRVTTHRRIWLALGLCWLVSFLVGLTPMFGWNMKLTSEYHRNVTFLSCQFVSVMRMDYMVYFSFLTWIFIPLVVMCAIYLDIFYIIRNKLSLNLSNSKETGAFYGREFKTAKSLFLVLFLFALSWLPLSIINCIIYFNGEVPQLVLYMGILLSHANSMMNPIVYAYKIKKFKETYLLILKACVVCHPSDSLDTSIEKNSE

[1] = target: T2, Alpha-2A adrenergic receptor (Homo sapiens, UniProt P08913); assay type: functional, cell-based
T2 sequence (P08913 whole entry): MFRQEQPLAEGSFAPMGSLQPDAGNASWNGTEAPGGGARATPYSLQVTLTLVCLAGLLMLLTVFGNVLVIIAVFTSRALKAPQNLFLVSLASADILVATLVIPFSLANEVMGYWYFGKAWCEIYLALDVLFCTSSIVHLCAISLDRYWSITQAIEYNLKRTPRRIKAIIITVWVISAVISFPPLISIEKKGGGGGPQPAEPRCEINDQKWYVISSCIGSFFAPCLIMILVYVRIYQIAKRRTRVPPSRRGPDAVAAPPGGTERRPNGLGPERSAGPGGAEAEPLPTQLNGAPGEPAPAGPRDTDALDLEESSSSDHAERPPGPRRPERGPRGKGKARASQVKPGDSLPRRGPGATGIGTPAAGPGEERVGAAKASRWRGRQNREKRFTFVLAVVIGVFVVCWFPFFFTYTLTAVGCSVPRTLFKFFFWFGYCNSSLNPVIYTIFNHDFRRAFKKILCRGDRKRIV

[2] = target: T3, Type-1 angiotensin II receptor (Homo sapiens, UniProt P30556)
T3 sequence (P30556 whole entry): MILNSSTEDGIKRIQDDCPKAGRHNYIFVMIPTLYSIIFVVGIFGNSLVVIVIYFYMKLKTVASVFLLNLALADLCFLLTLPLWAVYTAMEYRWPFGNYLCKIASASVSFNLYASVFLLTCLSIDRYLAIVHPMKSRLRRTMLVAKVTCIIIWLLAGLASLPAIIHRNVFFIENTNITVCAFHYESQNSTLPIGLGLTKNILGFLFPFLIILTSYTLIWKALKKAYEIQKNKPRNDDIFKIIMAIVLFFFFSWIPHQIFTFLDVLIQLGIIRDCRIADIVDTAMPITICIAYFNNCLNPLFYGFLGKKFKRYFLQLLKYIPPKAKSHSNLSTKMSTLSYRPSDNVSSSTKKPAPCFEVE

D(1A) dopamine receptor = D(1A) dopamine receptor (Homo sapiens, UniProt P21728); assay type: functional, cell-based
[3] = target: Gamma-aminobutyric acid receptor subunit alpha-1 (Rattus norvegicus, UniProt P62813); assay type: functional
[4] = target: T4, 5-hydroxytryptamine receptor 1A (Homo sapiens, UniProt P08908); assay type: functional, cell-based
T4 sequence (P08908 whole entry): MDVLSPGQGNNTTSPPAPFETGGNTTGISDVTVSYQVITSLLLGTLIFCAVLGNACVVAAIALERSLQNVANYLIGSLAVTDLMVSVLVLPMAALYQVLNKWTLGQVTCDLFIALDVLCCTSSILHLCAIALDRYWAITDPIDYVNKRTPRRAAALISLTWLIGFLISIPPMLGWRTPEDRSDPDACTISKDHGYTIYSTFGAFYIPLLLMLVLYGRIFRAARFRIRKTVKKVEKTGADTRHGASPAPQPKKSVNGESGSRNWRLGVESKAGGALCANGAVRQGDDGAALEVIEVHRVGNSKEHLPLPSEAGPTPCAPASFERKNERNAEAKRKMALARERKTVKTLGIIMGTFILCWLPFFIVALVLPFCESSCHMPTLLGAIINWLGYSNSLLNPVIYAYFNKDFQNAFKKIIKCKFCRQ

Melanocortin receptor 3 = Melanocortin receptor 3 (Homo sapiens, UniProt P41968)
Motilin receptor = Motilin receptor (Homo sapiens, UniProt O43193)
[5] = target: T5, Equilibrative nucleoside transporter 1 (Homo sapiens, UniProt Q99808)
T5 sequence (Q99808 whole entry): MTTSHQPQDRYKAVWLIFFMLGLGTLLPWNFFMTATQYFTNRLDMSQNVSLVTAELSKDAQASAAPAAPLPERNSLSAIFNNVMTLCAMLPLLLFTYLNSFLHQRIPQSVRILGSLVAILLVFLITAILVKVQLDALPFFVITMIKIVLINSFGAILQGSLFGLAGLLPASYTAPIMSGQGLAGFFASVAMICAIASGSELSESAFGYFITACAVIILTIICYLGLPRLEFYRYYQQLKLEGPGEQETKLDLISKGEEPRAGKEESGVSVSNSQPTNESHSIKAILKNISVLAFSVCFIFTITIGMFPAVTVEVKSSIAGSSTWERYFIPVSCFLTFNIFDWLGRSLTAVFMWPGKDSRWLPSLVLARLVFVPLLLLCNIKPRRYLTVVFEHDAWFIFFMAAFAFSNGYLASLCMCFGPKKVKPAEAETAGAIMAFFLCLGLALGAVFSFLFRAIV

[6] = target: T6, Amine oxidase [flavin-containing] A (Homo sapiens, UniProt P21397); assay type: functional
T6 sequence (P21397 whole entry): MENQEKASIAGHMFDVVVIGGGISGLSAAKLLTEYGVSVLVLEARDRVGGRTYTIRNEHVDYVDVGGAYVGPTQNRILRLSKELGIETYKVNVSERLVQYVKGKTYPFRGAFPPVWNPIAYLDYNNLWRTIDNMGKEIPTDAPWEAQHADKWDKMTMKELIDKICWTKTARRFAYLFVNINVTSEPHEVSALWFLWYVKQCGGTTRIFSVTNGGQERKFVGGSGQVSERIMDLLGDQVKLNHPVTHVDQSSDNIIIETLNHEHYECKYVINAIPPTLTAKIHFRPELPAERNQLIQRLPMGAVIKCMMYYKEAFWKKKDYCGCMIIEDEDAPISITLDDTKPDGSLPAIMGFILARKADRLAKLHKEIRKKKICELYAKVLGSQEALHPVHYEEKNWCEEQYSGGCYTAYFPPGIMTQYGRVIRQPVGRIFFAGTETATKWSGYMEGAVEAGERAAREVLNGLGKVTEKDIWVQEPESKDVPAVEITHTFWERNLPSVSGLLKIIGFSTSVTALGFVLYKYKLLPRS
Note: assay procedure not described here.

Sequence of Melanocortin receptor 3 (P41968 whole entry): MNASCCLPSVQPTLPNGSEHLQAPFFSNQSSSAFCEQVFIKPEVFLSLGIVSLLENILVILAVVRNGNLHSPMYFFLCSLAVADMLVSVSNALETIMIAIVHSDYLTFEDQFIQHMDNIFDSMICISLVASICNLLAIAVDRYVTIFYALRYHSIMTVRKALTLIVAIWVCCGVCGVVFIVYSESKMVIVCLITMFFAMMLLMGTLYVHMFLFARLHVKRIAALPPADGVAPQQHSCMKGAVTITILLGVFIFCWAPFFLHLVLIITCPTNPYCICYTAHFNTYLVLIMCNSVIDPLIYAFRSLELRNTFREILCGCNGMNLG
Sequence of Adenosine receptor A2a (P29274 whole entry): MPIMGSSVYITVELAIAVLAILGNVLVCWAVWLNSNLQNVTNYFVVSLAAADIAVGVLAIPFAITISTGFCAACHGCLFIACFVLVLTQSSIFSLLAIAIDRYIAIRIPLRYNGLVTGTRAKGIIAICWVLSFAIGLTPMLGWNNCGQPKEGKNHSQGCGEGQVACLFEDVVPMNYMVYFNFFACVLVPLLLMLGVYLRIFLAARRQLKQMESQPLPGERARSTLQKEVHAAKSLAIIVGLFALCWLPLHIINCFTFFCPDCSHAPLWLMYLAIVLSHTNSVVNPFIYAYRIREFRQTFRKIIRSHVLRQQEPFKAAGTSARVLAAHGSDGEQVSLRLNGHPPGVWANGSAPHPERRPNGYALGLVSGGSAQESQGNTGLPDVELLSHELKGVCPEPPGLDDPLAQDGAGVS
Sequence of Motilin receptor (O43193 whole entry): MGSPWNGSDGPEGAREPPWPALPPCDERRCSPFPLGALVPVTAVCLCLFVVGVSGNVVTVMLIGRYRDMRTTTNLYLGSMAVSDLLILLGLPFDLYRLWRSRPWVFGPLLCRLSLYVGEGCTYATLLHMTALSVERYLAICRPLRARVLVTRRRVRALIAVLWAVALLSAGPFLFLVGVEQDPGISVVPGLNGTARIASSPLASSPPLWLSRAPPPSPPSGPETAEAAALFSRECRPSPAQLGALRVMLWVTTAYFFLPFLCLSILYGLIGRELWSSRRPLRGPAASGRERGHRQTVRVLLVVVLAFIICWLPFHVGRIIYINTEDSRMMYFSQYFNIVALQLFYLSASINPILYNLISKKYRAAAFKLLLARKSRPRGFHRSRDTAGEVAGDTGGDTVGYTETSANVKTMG
Sequence of Gamma-aminobutyric acid receptor subunit alpha-1 (P62813 whole entry): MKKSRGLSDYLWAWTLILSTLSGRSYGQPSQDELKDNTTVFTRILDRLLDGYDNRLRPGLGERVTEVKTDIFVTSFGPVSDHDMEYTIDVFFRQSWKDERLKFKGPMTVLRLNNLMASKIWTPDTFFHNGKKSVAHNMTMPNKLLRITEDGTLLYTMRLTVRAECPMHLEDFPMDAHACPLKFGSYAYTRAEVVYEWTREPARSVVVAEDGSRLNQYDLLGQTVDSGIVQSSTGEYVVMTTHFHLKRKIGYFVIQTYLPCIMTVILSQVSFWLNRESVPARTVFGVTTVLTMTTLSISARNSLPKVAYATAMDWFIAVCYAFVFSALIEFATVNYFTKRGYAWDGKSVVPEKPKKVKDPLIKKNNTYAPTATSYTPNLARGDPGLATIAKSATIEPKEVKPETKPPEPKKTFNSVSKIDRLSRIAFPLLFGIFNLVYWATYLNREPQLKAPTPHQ
Sequence of D(1A) dopamine receptor (P21728 whole entry): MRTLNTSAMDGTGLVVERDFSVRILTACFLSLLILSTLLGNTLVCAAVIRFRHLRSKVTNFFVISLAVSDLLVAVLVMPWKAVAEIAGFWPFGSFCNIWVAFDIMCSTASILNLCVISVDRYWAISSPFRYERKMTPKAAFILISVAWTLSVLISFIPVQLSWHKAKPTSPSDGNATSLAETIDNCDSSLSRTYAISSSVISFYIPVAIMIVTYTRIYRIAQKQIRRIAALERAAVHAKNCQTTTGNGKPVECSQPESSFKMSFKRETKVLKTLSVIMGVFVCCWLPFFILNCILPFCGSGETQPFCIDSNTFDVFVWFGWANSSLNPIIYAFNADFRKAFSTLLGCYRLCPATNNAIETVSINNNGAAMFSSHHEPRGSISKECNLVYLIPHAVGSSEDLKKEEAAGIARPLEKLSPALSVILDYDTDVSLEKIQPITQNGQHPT

| Structure (SMILES) | AC50 (Adenosine receptor A2a) | AC50 (Adenosine receptor A3) | AC50 [1] | AC50 [2] | AC50 (D(1A) dopamine receptor) | AC50 [3] | AC50 [4] | AC50 (Melanocortin receptor 3) | AC50 (Motilin receptor) | AC50 [5] | AC50 [6] |
| --- | --- | --- | --- | --- | --- | --- | --- | --- | --- | --- | --- |
| OCCOCCN1CCN(C(c2ccccc2)c2ccc(Cl)cc2)CC1 (stereo not given) [HYDROXYZINE] | > 30 µM | > 30 µM | > 10 µM | > 30 µM | > 10 µM | > 10 µM | > 10 µM | > 30 µM | > 10 µM | > 30 µM | > 10 µM |
| C[C@H](CCC(=O)O)[C@H]1CC[C@H]2[C@@H]3[C@H](O)C[C@@H]4C[C@H](O)CC[C@]4(C)[C@H]3CC[C@]12C [CHENODIOL] | > 30 µM | > 30 µM | > 30 µM | > 30 µM | > 30 µM | > 30 µM | > 30 µM | > 30 µM | > 30 µM | > 30 µM | > 30 µM |
| CCOC(=O)[C@H](CCc1ccccc1)N[C@@H](C)C(=O)N1Cc2ccccc2C[C@H]1C(=O)O | > 30 µM | > 30 µM | > 10 µM | > 30 µM | > 10 µM | > 10 µM | > 10 µM | > 30 µM | > 10 µM | > 30 µM | > 10 µM |
| C[C@]12CCC(=O)C=C1CC[C@H]1[C@@H]3CC[C@](O)(C(=O)CO)[C@@]3(C)C[C@H](O)[C@@]12F [FLUDROCORTISONE] | > 30 µM | > 30 µM | > 10 µM | > 30 µM | > 10 µM | > 10 µM | > 10 µM | > 30 µM | > 10 µM | > 30 µM | > 10 µM |
| CC(C)C[C@H](NC(=O)[C@H](Cc1ccccc1)NC(=O)c1cnccn1)B(O)O [BORTEZOMIB] | > 30 µM | > 30 µM | > 30 µM | > 30 µM | > 30 µM | > 30 µM | > 30 µM | > 30 µM | > 30 µM | > 30 µM | > 30 µM |
| CN(C)CCN(Cc1ccccc1)c1ccccn1 [TRIPELENNAMINE] | > 10 µM | > 10 µM | > 10 µM | > 10 µM | > 10 µM | > 10 µM | > 10 µM | > 10 µM | > 10 µM | > 30 µM | > 10 µM |
| NCC1(CC(=O)O)CCCCC1 [GABAPENTIN] | > 30 µM | > 30 µM | > 30 µM | > 30 µM | > 30 µM | > 30 µM | > 30 µM | > 30 µM | > 30 µM | > 30 µM | > 30 µM |
| COc1cc2c(cc1OC)C1CC(=O)C(CC(C)C)CN1CC2 (stereo not given) [TETRABENAZINE] | > 30 µM | > 30 µM | > 30 µM | > 30 µM | > 30 µM | > 30 µM | 18 µM | > 30 µM | > 30 µM | > 30 µM | > 30 µM |
| CCN(CC)CCn1c(=O)c(Cc2ccc(OC)cc2)nc2ccccc21 [CAROVERINE] | > 30 µM | 27 µM | > 30 µM | > 30 µM | > 30 µM | 19 µM | > 30 µM | > 30 µM | 16.8 µM | > 30 µM | > 30 µM |
| C[C@H](Nc1ncnc2[nH]cnc12)c1cc2cccc(Cl)c2c(=O)n1-c1ccccc1 [DUVELISIB] | > 30 µM | > 30 µM | > 30 µM | > 30 µM | > 30 µM | > 30 µM | > 30 µM | > 30 µM | > 30 µM | > 30 µM | > 30 µM |
| CC(C)(CO)c1cc2cc(NC(=O)C3(c4ccc5c(c4)OC(F)(F)O5)CC3)c(F)cc2n1C[C@@H](O)CO [TEZACAFTOR] | > 30 µM | > 30 µM | > 30 µM | > 30 µM | > 30 µM | > 30 µM | > 30 µM | > 30 µM | > 30 µM | > 30 µM | > 30 µM |
| CN(C)CCOC(c1ccc(Cl)cc1)c1ccccn1 (stereo not given) [CARBINOXAMINE] | > 30 µM | > 30 µM | > 30 µM | > 30 µM | > 30 µM | > 30 µM | > 30 µM | > 30 µM | > 30 µM | > 30 µM | > 30 µM |
| CCOc1ccccc1OCCN[C@H](C)Cc1ccc(OC)c(S(N)(=O)=O)c1 [TAMSULOSIN] | > 30 µM | > 30 µM | > 30 µM | > 30 µM | > 10 µM | > 10 µM | > 10 µM | > 30 µM | > 10 µM | > 30 µM | > 10 µM |
| Nc1c2c(nc3ccccc13)CCCC2O (stereo not given) [VELNACRINE] | > 30 µM | > 30 µM | > 30 µM | > 30 µM | > 30 µM | > 30 µM | > 30 µM | > 30 µM | > 30 µM | > 30 µM | > 30 µM |
| C[C@H](CS)C(=O)N1CCC[C@H]1C(=O)O [CAPTOPRIL] | > 30 µM | > 30 µM | > 10 µM | > 30 µM | > 30 µM | > 10 µM | > 30 µM | > 30 µM | > 10 µM | > 30 µM | > 10 µM |
